# What was measured:
# Test in all cases: relative viability (nuclei count vs DMSO), 5 days (fraction); higher = more cells survive
# 201T = test system: 201T
# Summary of the method: (§1)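 Nuclei were stained with Hoechst during a one-step fixation (final 0.05% Triton X-100, 1% formaldehyde, 1 ug/ml Hoechst) carried out 5 days after dosing, then counted on 4× images. The cells, lung cancer lines in 1536-well plates, had been dosed by pin tool the day after seeding with one drug alone or a fixed anchor-drug dose plus five library-drug doses (not always all listed) in √10 steps. Relative viability is the nuclei count in treated wells divided by that in vehicle wells, and each value is the median of duplicate plates.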
# ABC-1 = test system: ABC-1
# Summary of the method: as §1
# EMC-BAC-2 = test system: EMC-BAC-2
# Summary of the method: as §1
# EPLC-272H = test system: EPLC-272H
# Summary of the method: as §1
# HCC-78 = test system: HCC-78
# Summary of the method: as §1
# LOU-NH91 = test system: LOU-NH91
# Summary of the method: as §1
# NCI-H1395 = test system: NCI-H1395
# Summary of the method: as §1
# NCI-H1437 = test system: NCI-H1437
# Summary of the method: as §1
# NCI-H1651 = test system: NCI-H1651
# Summary of the method: as §1
# NCI-H1734 = test system: NCI-H1734
# Summary of the method: as §1
# NCI-H1792 = test system: NCI-H1792
# Summary of the method: as §1
# NCI-H1793 = test system: NCI-H1793
# Summary of the method: as §1
# NCI-H1915 = test system: NCI-H1915
# Summary of the method: as §1
# NCI-H1975 = test system: NCI-H1975
# Summary of the method: as §1
# NCI-H2023 = test system: NCI-H2023
# Summary of the method: as §1
# NCI-H23 = test system: NCI-H23
# Summary of the method: as §1
# NCI-H2405 = test system: NCI-H2405
# Summary of the method: as §1
# NCI-H647 = test system: NCI-H647
# Summary of the method: as §1
# NCI-H661 = test system: NCI-H661
# Summary of the method: as §1
# RERF-LC-KJ = test system: RERF-LC-KJ
# Summary of the method: as §1
# SK-LU-1 = test system: SK-LU-1
# Summary of the method: as §1
# UMC-11 = test system: UMC-11
# Summary of the method: as §1
compound,measurement,setting,value
O=C(O)CCCCC(CCSCc1ccccc1)SCc1ccccc1 (stereo not drawn) [CPI-613] + CS(=O)(=O)CCNCc1ccc(-c2ccc3ncnc(Nc4ccc(OCc5cccc(F)c5)c(Cl)c4)c3c2)o1 [Lapatinib] (partner 2 µM),relative viability,201T; first compound 5 µM,1.09
same,relative viability,201T; first compound 15.81 µM,0.958
same,relative viability,201T; first compound 50 µM,0.953
same,relative viability,201T; first compound 158.11 µM,0.978
same,relative viability,201T; first compound 500 µM,0.972
same,relative viability,ABC-1; first compound 5 µM,1
same,relative viability,ABC-1; first compound 15.81 µM,0.948
same,relative viability,ABC-1; first compound 50 µM,1.33
same,relative viability,ABC-1; first compound 158.11 µM,1.27
same,relative viability,ABC-1; first compound 500 µM,1.57
same,relative viability,EMC-BAC-2; first compound 5 µM,0.827
same,relative viability,EMC-BAC-2; first compound 15.81 µM,0.86
same,relative viability,EMC-BAC-2; first compound 50 µM,0.847
same,relative viability,EMC-BAC-2; first compound 158.11 µM,0.954
same,relative viability,EMC-BAC-2; first compound 500 µM,0.0887
same,relative viability,EPLC-272H; first compound 5 µM,0.905
same,relative viability,EPLC-272H; first compound 15.81 µM,0.828
same,relative viability,EPLC-272H; first compound 50 µM,0.879
same,relative viability,EPLC-272H; first compound 158.11 µM,1
same,relative viability,EPLC-272H; first compound 500 µM,0.857
same,relative viability,HCC-78; first compound 5 µM,0.825
same,relative viability,HCC-78; first compound 15.81 µM,0.591
same,relative viability,HCC-78; first compound 158.11 µM,0.816
same,relative viability,HCC-78; first compound 500 µM,1.14
same,relative viability,LOU-NH91; first compound 5 µM,0.79
same,relative viability,LOU-NH91; first compound 15.81 µM,0.722
same,relative viability,LOU-NH91; first compound 50 µM,0.834
same,relative viability,LOU-NH91; first compound 158.11 µM,0.739
same,relative viability,LOU-NH91; first compound 500 µM,0.699
same,relative viability,NCI-H1395; first compound 5 µM,1.01
same,relative viability,NCI-H1395; first compound 15.81 µM,0.91
same,relative viability,NCI-H1395; first compound 50 µM,1.08
same,relative viability,NCI-H1395; first compound 158.11 µM,0.773
same,relative viability,NCI-H1395; first compound 500 µM,0.894
same,relative viability,NCI-H1437; first compound 5 µM,0.772
same,relative viability,NCI-H1437; first compound 15.81 µM,0.685
same,relative viability,NCI-H1437; first compound 50 µM,0.746
same,relative viability,NCI-H1437; first compound 158.11 µM,0.185
same,relative viability,NCI-H1437; first compound 500 µM,0.0285
same,relative viability,NCI-H1651; first compound 5 µM,0.732
same,relative viability,NCI-H1651; first compound 15.81 µM,0.71
same,relative viability,NCI-H1651; first compound 50 µM,0.781
same,relative viability,NCI-H1651; first compound 158.11 µM,0.312
same,relative viability,NCI-H1651; first compound 500 µM,0.0775
same,relative viability,NCI-H1734; first compound 5 µM,0.939
same,relative viability,NCI-H1734; first compound 15.81 µM,0.686
same,relative viability,NCI-H1734; first compound 50 µM,1
same,relative viability,NCI-H1734; first compound 158.11 µM,0.349
same,relative viability,NCI-H1734; first compound 500 µM,0.116
same,relative viability,NCI-H1792; first compound 5 µM,0.841
same,relative viability,NCI-H1792; first compound 15.81 µM,0.846
same,relative viability,NCI-H1792; first compound 50 µM,0.838
same,relative viability,NCI-H1792; first compound 158.11 µM,0.72
same,relative viability,NCI-H1792; first compound 500 µM,0.9
same,relative viability,NCI-H1793; first compound 5 µM,0.683
same,relative viability,NCI-H1793; first compound 50 µM,0.732
same,relative viability,NCI-H1793; first compound 158.11 µM,0.306
same,relative viability,NCI-H1793; first compound 500 µM,0.0696
same,relative viability,NCI-H1915; first compound 5 µM,0.948
same,relative viability,NCI-H1915; first compound 15.81 µM,1.02
same,relative viability,NCI-H1915; first compound 50 µM,0.948
same,relative viability,NCI-H1915; first compound 158.11 µM,0.873
same,relative viability,NCI-H1915; first compound 500 µM,0.832
same,relative viability,NCI-H1975; first compound 5 µM,0.89
same,relative viability,NCI-H1975; first compound 15.81 µM,0.832
same,relative viability,NCI-H1975; first compound 50 µM,0.821
same,relative viability,NCI-H1975; first compound 158.11 µM,0.824
same,relative viability,NCI-H1975; first compound 500 µM,0.0608
same,relative viability,NCI-H2023; first compound 5 µM,0.694
same,relative viability,NCI-H2023; first compound 15.81 µM,0.63
same,relative viability,NCI-H2023; first compound 50 µM,0.755
same,relative viability,NCI-H2023; first compound 158.11 µM,0.0743
same,relative viability,NCI-H2023; first compound 500 µM,0.0041
same,relative viability,NCI-H23; first compound 5 µM,0.95
same,relative viability,NCI-H23; first compound 15.81 µM,0.812
same,relative viability,NCI-H23; first compound 50 µM,0.873
same,relative viability,NCI-H23; first compound 158.11 µM,0.261
same,relative viability,NCI-H23; first compound 500 µM,0.0192
same,relative viability,NCI-H2405; first compound 5 µM,1.09
same,relative viability,NCI-H2405; first compound 15.81 µM,1.12
same,relative viability,NCI-H2405; first compound 50 µM,1.09
same,relative viability,NCI-H2405; first compound 158.11 µM,0.979
same,relative viability,NCI-H2405; first compound 500 µM,0.902
same,relative viability,NCI-H647; first compound 5 µM,0.962
same,relative viability,NCI-H647; first compound 15.81 µM,0.698
same,relative viability,NCI-H647; first compound 50 µM,0.757
same,relative viability,NCI-H647; first compound 158.11 µM,0.27
same,relative viability,NCI-H647; first compound 500 µM,0.0102
same,relative viability,NCI-H661; first compound 5 µM,0.419
same,relative viability,NCI-H661; first compound 15.81 µM,0.367
same,relative viability,NCI-H661; first compound 50 µM,0.581
same,relative viability,NCI-H661; first compound 158.11 µM,0.49
same,relative viability,NCI-H661; first compound 500 µM,0.576
same,relative viability,RERF-LC-KJ; first compound 5 µM,0.857
same,relative viability,RERF-LC-KJ; first compound 15.81 µM,0.826
same,relative viability,RERF-LC-KJ; first compound 50 µM,0.782
same,relative viability,RERF-LC-KJ; first compound 158.11 µM,0.854
same,relative viability,RERF-LC-KJ; first compound 500 µM,0.819
same,relative viability,SK-LU-1; first compound 5 µM,0.818
same,relative viability,SK-LU-1; first compound 15.81 µM,0.692
same,relative viability,SK-LU-1; first compound 50 µM,0.752
same,relative viability,SK-LU-1; first compound 158.11 µM,0.587
same,relative viability,SK-LU-1; first compound 500 µM,0.379
same,relative viability,UMC-11; first compound 5 µM,1.08
same,relative viability,UMC-11; first compound 15.81 µM,1.11
same,relative viability,UMC-11; first compound 50 µM,0.789
same,relative viability,UMC-11; first compound 158.11 µM,0.438
same,relative viability,UMC-11; first compound 500 µM,0.119
